From patent US20180271923A1, “COMPOSITION FOR PREVENTING OR TREATING MENOPAUSAL DISORDERS, CONTAINING TETRAGONIA TETRAGONOIDES (PALL.) KUNTZE EXTRACT” (Korea Institute of Oriental Medicine, priority 2015, published 2018) come the findings set out here.

Holding throughout (type): in vivo
Data set [1] deals with ovariectomized rats. In words: Evaluation on menopause inducement in ovariectomized rats (weight of uterus, serum 17β-estradiol by RIA kit). As to conditions: n = 12, means ± SD, Table 1. Here is the method:
Rats were ovariectomized to induce menopause, and weight of uterus and serum levels of 17β-estradiol that is a kind of female hormones were measured to determine whether menopause was induced in the rats. Specifically, the rats were sacrificed, and then their uteri were removed and weighed. A serum concentration of 17β-estradiol was measured with an RIA kit (Linco Research Inc.).

Data set [2] has as its system ovariectomized rats. The experiment in a line: Body weight, visceral fat, uterus weight and calorie uptake at end of experiment in ovariectomized rats on high-fat diet. As for the experimental part:
In order to confirm efficacies of the Tetragonia tetragonoides (Pall.) Kuntze extract prepared according to Preparation Example 1 for ameliorating menopausal obesity, rats were ovariectomized and, at the same time, obesity-induced. The rats were fed with the Tetragonia tetragonoides (Pall.) Kuntze extract, and effects of the extract on visceral fat were evaluated. Specifically, the ovariectomized rats were fed with a high-fat diet (HFD) consisting of 40% energy (En %) of carbohydrate, 20 En % of protein, and 40 En % of fat, along with dextrin. The high-fat diet was made to contain 2% (w/w) of the Tetragonia tetragonoides (Pall.) Kuntze extract, and the rats were offered ad libitum access to the diet for 8 weeks. On the other hand, in the positive-control, the ovariectomized rats received 17β-estradiol which is a hormone preparation and were fed with a diet in which the high fat diet is mixed with dextrin for 8 weeks. Then, at the end of the experiment, a body weight, a mass of visceral fat including peri-uterine fat and fat in retroperitoneum, an energy consumption, and the like were measured.

Data set [3] concerns ovariectomized rats. In words: Energy consumption by indirect calorimetry in ovariectomized rats. As to conditions: indirect calorimetry after 8 weeks, 6 hours fasting, n = 12, means ± SD. From the text: Specifically, the ovariectomized rats were fed with a high-fat diet (HFD) consisting of 40% energy (En %) of carbohydrate, 20 En % of protein, and 40 En % of fat, along with dextrin. The high-fat diet was made to contain 2% (w/w) of the Tetragonia tetragonoides (Pall.) Kuntze extract, and the rats were offered ad libitum access to the diet for 8 weeks. On the other hand, in the positive-control, the ovariectomized rats received 17β-estradiol which is a hormone preparation and were fed with a diet in which the high fat diet is mixed with dextrin for 8 weeks. Then, at the end of the experiment, a body weight, a mass of visceral fat including peri-uterine fat and fat in retroperitoneum, an energy consumption, and the like were measured. The energy consumption was analyzed by indirect calorimetry. Specifically, after the Tetragonia tetragonoides (Pall.) Kuntze extract was fed for 8 weeks, and a fasting state of 6 hours was induced, the energy consumption was measured at the time of beginning of a dark period in light/dark cycle. In order to analyze calorimetric parameters, a metabolic chamber (airflow=800 ml/min) equipped with a computer-controlled O2 and CO2 measurement system (BIOPAC Systems, Inc., Goleta, Calif.) was utilized, and respiratory quotient (RQ) and resting energy expenditure (REE) were calculated using equations. An average oxygen uptake (VO2) and an average carbon dioxide emission (VCO2) were measured over 30 minutes. After the experiment, data were averaged at 1 minute intervals and the VO2 and VCO2 values were calibrated to a body size (kg^0.75). Oxidation of carbohydrate and fat was calculated as a non-protein oxygen uptake, that is, a relative oxidation rate and an oxygen amount consumed per gram (g) of oxidized substrate.

The subject of data set [4] is ovariectomized rats. In words: Serum triglyceride, glucose, insulin, cholesterol levels and HOMA-IR in overnight-fasted ovariectomized rats. As to conditions: n = 12, means ± SD. As for the experimental part: In order to confirm efficacies of the Tetragonia tetragonoides (Pall.) Kuntze extract prepared according to Preparation Example 1 for ameliorating menopausal obesity, rats were ovariectomized and, at the same time, obesity-induced. The rats were fed with the Tetragonia tetragonoides (Pall.) Kuntze extract, and effects of the extract on obesity-related parameters in blood were evaluated. The ovariectomized rats were fed with the Tetragonia tetragonoides (Pall.) Kuntze by the method according to Example 1-1. Then, at the end of the experiment, the rats were fasted overnight and masses of serum glucose, insulin, and triglyceride were measured. Specifically, the rats were fasted for 16 hours, and then blood was collected from tails. Fasting serum glucose levels were measured by a Beckman glucometer and serum insulin concentrations were measured by radioimmunoassay. Fasting blood glucose, food and water intake, and body weight were measured at 10 a.m. on every Tuesday. Based on the above results, a homeostasis model assessment of insulin resistance (HOMA-IR) concentration which is used as a marker of insulin resistance was calculated, and the following Equation 1 was used for such calculation. HOMA-IR=fasting insulin(μIU/ml)×fasting glucose(mM)/22.5 [Equation 1]

Where [5] appears, read: ovariectomized rats, high-fat diet, 8 weeks, n = 12, means ± SD.
Setting [6] is: serum, overnight-fasted ovariectomized rats.

Structures are written as SMILES. Marks after values point to notes of the source that are not given here.

Consider `C[C@]12CC[C@@H]3c4ccc(O)cc4CC[C@H]3[C@@H]1CC[C@@H]2O` [Positive-control, 17β-estradiol], for which the Weight of uterus in data set [1] was 0.61 ± 0.22^a g. In data set [2] (in words), the “weight of uterus (proliferation of uterus, side effect of hormone therapies)” value is given as “increase”. The Body weight in data set [2] (ovariectomized rats, high-fat diet with 2% (w/w) extract for 8 weeks (positive-control: 17β-estradiol), end of experiment, n = 12, means ± SD) is 369 ± 26^b g. In addition, in data set [2] (setting [5]), the Body weight gain is on record as 70.0 ± 11.5^c g, the Fat in retroperitoneum is 5.7 ± 1.6^c g and the Peri-uterine fat is 7.2 ± 1.6^d g. The Weight of uterus in data set [2] (ovariectomized rats, high-fat diet, 8 weeks, n = 12, means ± SD, Table 2) was 0.61 ± 0.22^a g. The Visceral fat in data set [2] (peri-uterine fat and fat in retroperitoneum, ovariectomized rats, high-fat diet, 8 weeks, n = 12, means ± SD) is given as 12.9 ± 2.6^c g. Moreover, the Daily energy consumption in data set [3] (beginning of dark period) is 117 ± 15^a kcal/kg^0.75/day. Besides, in data set [3], the Carbohydrate oxidation is recorded as 5.6 ± 0.7^b mg/kg^0.75/min and the Fat oxidation is listed as 6.9 ± 0.8^b mg/kg^0.75/min. In addition, the HOMA-IR in data set [4] (fasting insulin × fasting glucose / 22.5 (Equation 1)) is listed as 6.8 ± 0.9^c. Further, the Glucose levels in data set [4] (serum, overnight-fasted (16 hours) ovariectomized rats, end of experiment) is 109 ± 13^b mg/dL. For the same compound, in data set [4] (setting [6]), the HDL cholesterol is 23.2 ± 1.5^a mg/dL, the Total cholesterol was 85.0 ± 7.6^c mg/dL and the Triglyceride levels is reported as 65.7 ± 5.8^b mg/dL. Besides, the Insulin levels in data set [4] (serum, overnight-fasted ovariectomized rats, radioimmunoassay) is reported as 1.14 ± 0.19^b ng/mL.
